# Test results as given in patent US8455448B2, “Myostatin isoform” (Myostin Therapeutics Pty Ltd, priority 2004, dated 2013).
# Where no end group is shown, it is not given here.
# What was measured:
# [1] = tested on: human skeletal muscle myoblasts; test: Proliferation assay of human primary myoblasts (methylene blue); assay type: cell-based
# Method: (§1) Human skeletal muscle myoblasts (Cambrex, Australia) were seeded in 96-well tissue culture plates (Nunc, Roskilde, Denmark) at a cell density of 2000 cells per well in 200 μl of Skeletal Muscle Basal Medium (Cambrex, Australia) supplemented with foetal bovine serum (FBS, 10% v/v, Cambrex, Australia), and incubated overnight at 37° C. with 5% CO2. The medium was replaced with Dulbecco's modified Eagle's medium (DMEM, Invitrogen, California) supplemented with 5% foetal bovine serum (FBS, Invitrogen, California), penicillin (1×10^5 IU/l, Sigma, St Louis, Mo., USA) and streptomycin (100 mg/l, Sigma) buffered with NaHCO3 containing phenol red (7.22 nmol/l) as a pH indicator with 0, 0.1, 1, 5 and 10 μg/ml rhMSV38 or roMSV47 protein in a semi-random arrangement of eight replicates (n=8) for each test medium. Plates were incubated at 37° C. with 5% CO2 for 96 hours, and then the medium was removed. The wells were washed with 200 μl of phosphate buffered saline (PBS, Oxoid, UK) buffer and fixed with 100 μl of 10% formaldehyde, 0.9% NaCl solution for at least one hour. The fixative was then removed and 100 μl of 1% methylene blue stain in 0.01 M borate buffer (pH 8.5) was added to each well and incubated for 30 min at room temperature. Excess stain was removed by four sequential washes in borate buffer. Methylene blue was eluted from the cells by the addition of 100 μl 1:1 (v/v) ethanol/0.1 HCl. The plates were gently shaken and the absorbance was measured at 655 nm using a microplate photometer (VersaMax, Molecular Devices, CA).
# Human skeletal muscle myoblasts (Cambrex, Australia) were seeded in 96-well tissue culture plates (Nunc, Roskilde, Denmark) at a cell density of 2000 cells per well in 200 μl of Skeletal Muscle Basal Medium (Cambrex, Australia) supplemented with foetal bovine serum (FBS, 10% v/v, Cambrex, Australia), and incubated overnight at 37° C. with 5% CO2. The medium was replaced with Dulbecco's modified Eagle's medium (DMEM, Invitrogen, California) supplemented with 5% foetal bovine serum (FBS, Invitrogen, California), penicillin (1×10^5 IU/l, Sigma, St Louis, Mo., USA) and streptomycin (100 mg/l, Sigma) buffered with NaHCO3 containing phenol red (7.22 nmol/l) as a pH indicator with no added protein, 1.5 or 3.0 μg/ml recombinant bovine mature myostatin alone and with combination of 0.3, 1, 3, 10 molar ratio of rhMSV38 to myostatin, and the same amounts of rhMSV38 without myostatin in a semi-random arrangement of eight replicates (n=8) for each test medium. Plates were incubated at 37° C. with 5% CO2 for 48 hours, and then the medium was removed. […] The plates were gently shaken and the absorbance was measured at 655 nm using a microplate photometer (VersaMax, Molecular Devices, CA).
# murine C2C12 myoblasts = test: Proliferation assay of C2C12 murine myoblasts (methylene blue, absorbance 655 nm); assay type: cell-based
# Method: (§2) Myoblasts were seeded in 96-well tissue culture plates (Nunc, Roskilde, Denmark) at a cell density of 1000 cells per well in 200 μl of Dulbecco's modified Eagle's medium (DMEM, Invitrogen, California) supplemented with foetal bovine serum (FBS, 10% v/v, Invitrogen), penicillin (1×10^5 IU/l, Sigma, St Louis, Mo., USA) and streptomycin (100 mg/l, Sigma) buffered with NaHCO3 containing phenol red (7.22 nmol/l) as a pH indicator, and incubated overnight at 37° C. with 5% CO2. Medium was replaced with DMEM 10% FBS test medium containing 0, 0.001, 0.003, 0.01, 0.03, 0.1, 0.3, 1, 3 or 10 μg/ml oMSV65 in a semi-random arrangement of eight replicates (n=8) for each test medium. Plates were incubated at 37° C. with 5% CO2 for 72 hours, and then the medium was removed. The wells were washed with 200 μl of phosphate buffered saline (PBS, Oxoid, UK) and fixed with 100 μl of 10% formaldehyde, 0.9% NaCl solution for at least one hour. The fixative was then removed and 100 μl of 1% methylene blue stain in 0.01 M borate buffer (pH 8.5) was added to each well and incubated for 30 min at room temperature. Excess stain was removed by four sequential washes in borate buffer. Methylene blue was eluted from the cells by the addition of 100 μl 1:1 (v/v) ethanol/0.1 HCl. The plates were gently shaken and the absorbance was measured at 655 nm using a microplate photometer (FIGS. 3a and 3b).
# as §2, with “0,” for “0, 0.001, 0.003,”, “0.01,” for “0.01, 0.03,”, “1” for “0.3, 1, 3”, “oMSV47” for “oMSV65”, “60” for “72”, “(FIG. 9).” for “(FIGS. 3a and 3b).”
# Myoblasts were seeded in 96-well tissue culture plates (Nunc, Roskilde, Denmark) at a cell density of 1000 cells per well in […] of Dulbecco's modified Eagle's medium (DMEM, Invitrogen, California) supplemented with foetal bovine serum (FBS, 10% v/v, Invitrogen), penicillin (1×10^5 IU/l, Sigma, St Louis, Mo., USA) and streptomycin (100 mg/l, Sigma) buffered with NaHCO3 containing phenol red (7.22 nmol/l) as a pH indicator, and incubated overnight at 37° C. with 5% CO2. Medium was replaced with DMEM 2.5% FBS test medium containing 0, 0.01, 0.1, 1, 5 or 10 μg/ml of the respective peptides in a semi-random arrangement of eight replicates (n=8) for each test medium. Plates were incubated at 37° C. with 5% CO2 for 80 hours, and then the medium was removed. The wells were washed with 200 μl of phosphate buffered saline (PBS, Oxoid, UK) and fixed with 100 μl of 10% formaldehyde, 0.9% NaCl solution for at least one hour. The fixative was then removed and 100 μl of 1% methylene blue stain in 0.01 M borate buffer (pH 8.5) was added to each well and incubated for 30 min at room temperature. Excess stain was removed by four sequential washes in borate buffer. Methylene blue was eluted from the cells by the addition of 100 μl 1:1 (v/v) ethanol/0.1 HCl. […]
# myostatin = biological target: T1, myostatin (Bos taurus, UniProt O18836); test: rhMSV38/mature myostatin competition in human primary myoblast proliferation assay; assay type: cell-based, bovine; conditions: FIG. 13
# T1 sequence (O18836 267-375): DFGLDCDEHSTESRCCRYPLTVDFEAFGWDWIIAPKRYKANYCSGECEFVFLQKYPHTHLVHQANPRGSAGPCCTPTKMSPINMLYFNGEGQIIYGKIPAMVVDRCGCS
# Method: as §1, with “with no added protein, 1.5 or 3.0 μg/ml recombinant bovine mature myostatin alone and with combination of 0.3,” for “with 0, 0.1,”, “1, 3, 10 molar ratio of rhMSV38 to myostatin,” for “1, 5”, “and the same amounts of” for “and 10 μg/ml”, “rhMSV38 without myostatin” for “rhMSV38 or roMSV47 protein”, “for 48” for “for 96”
"molar ratio rhMSV38:myostatin at which restoration was achieved (myostatin; double the concentration of myostatin (3 μg/ml Mstn), 48 h)",Substance,"proliferation of human myoblasts under myostatin ([1]; 1.5 or 3 μg/ml Mstn, 48 h, FIG. 13)","myoblast proliferation under myostatin (murine C2C12 myoblasts; 1.5 μg/ml myostatin, C2C12, FIG. 9)","proliferation of human myoblasts ([1]; 0-10 μg/ml, 96 h, FIG. 12B)","proliferation of human primary myoblasts ([1]; rhMSV38 without myostatin, 48 h, FIG. 13)","overcoming the inhibitory effect of myostatin on proliferation of human myoblasts (myostatin; 1.5 μg/ml Mstn, 48 h)","antagonism of myostatin, proliferation relative to controls (myostatin; 1:10 molar ratio of myostatin to rhMSV38, 48 h)","proliferation of murine C2C12 myoblasts (murine C2C12 myoblasts; 0-10 μg/ml, DMEM 2.5% FBS, 80 h, FIG. 12A and FIG. 17)"
,"myostatin: recombinant bovine mature myostatin, negative regulator of muscle growth [reference compound]",inhibitory effect,inhibited myoblast proliferation,,,,,
1 × molar ratio,rhMSV38: recombinant human MSV38 expressed in E. coli (VHFPTPPNEEWIFFNVRRIIFLEVGFQFCSILGETALS; not fully specified),,,stimulate myoblast proliferation,stimulate proliferation of human primary myoblasts in a dose dependent manner,able to overcome the inhibitory effect of myostatin,increases proliferation beyond that of controls,stimulate myoblast proliferation
